Results taken from patent US4698332A, “Expectorant” (Mect Corporation, priority 1984, dated 1987).
Counter-ions that a name gives are not always drawn. Like-named read-outs stand apart in the source and are kept apart here.

What was measured:
palatine mucosa of frog = assay: Mucociliary transport of frog palatine mucosa (Example 8, Table 6); format: cell-based; details: for activation at 100 µg/mL: 10^-1 mg/ml; for activation at 100 µg/mL / activation at 10 µg/mL / activation at 1 µg/mL / activation at 0.1 µg/mL: mean ± SD, over 20.0% significant, read-out: Acceleration (mucociliary transport); for activation at 10 µg/mL: 10^-2 mg/ml; for activation at 1 µg/mL: 10^-3 mg/ml; for activation at 0.1 µg/mL: 10^-4 mg/ml
Method: Mucociliary transport was measured by the particle transport method. After decapitation of a frog, the surface of the palatine mucosa was separated with minimized damage and of fixed to a cork plate in a Petri dish which was then filled with 20 ml of Ringer's solution (trishydrochloric acid). The palatine mucosa was left in this state for 30 minutes before the commencement of measurement. For measurement, the Ringer's solution was removed and fine pieces of cork (capable of passing pharmaceutical sieve No. 5 but not capable of passing No. 6) were placed on the surface of the palatine mucosa, and the time (in seconds) required for the cork piece to move 1 cm was measured. The duration of movement, i.e., moving speed, was measured also in the state immediately after the removal of the Ringer's solution or pharmaceutical solution.

ciliated cell = assay: Rotating ciliated explant (Example 9, Table 7); format: cell-based; details: for activation at 100 µg/mL: 10^-1 mg/ml; for activation at 100 µg/mL / activation at 10 µg/mL / activation at 1 µg/mL / activation at 0.1 µg/mL: mean ± SD, > 20.0 significant, read-out: Acceleration (rotating ciliated explant); for activation at 10 µg/mL: 10^-2 mg/ml (terbutaline 1-^-2 [sic]); for activation at 0.1 µg/mL: 10^-4 mg/ml
Method: Human ciliated cells were collected from a normal trachea by means of a branchoscope, the ciliated cells being separated by rubbing the bronchus while observing through the branchoscope, while the collection of frog cilitated cells was conducted by rubbing the palatine mucosta, without being specially careful. […] The groups of cells were transferred to a cover slip and one drop of chicken plasma (prepared by Difco Company) and one drop of 50% chicken embryo extract were added to the cells, thus forming clots. The rotary motion in the clots was recorded by means of a video recorder and the number of rotations per minute was measured. The agents were dissolved in the Medium 199 and were injected through a tube attached to a rose chamber. The state of rotary motion 5 minutes, 10 minutes and 15 minutes after the injection were recorded by means of a video recorder, and the number of revolutions was measured.
A test was conducted to examine the above-mentioned effect by using sodium salt of N-Acetylneuraminic Acid, in accordance with the same testing method as that of Example 2.

[1] = test system: purulent sputum from patients with diffuse panbronchiolitis; assay: MTR of purulent sputum after sodium salt treatment (Example 10); design: species or system human sputum; frog palatine mucosa; details: 1 mg/ml sputum
Method: (§1) The sputum used as the specimens was collected from 12 samples of patients suffering from chronic obstructive lung disease. N-acetylneuraminic acid was added to the specimen sputum in the ratios of 5 mg/ml sputum and 1 mg/ml sputum, and the specimen was left for 1 hour at 4° C. before measurement. Sputum which has not been treated by N-acetylneuraminic acid was used as a comparison example. A palatine mucosa obtained from a decapitated frog head was kept at constant temperature and humidity until the mucus liquid of the frog itself depleted. The specimen sputum was placed on the dried palatine mucosa, and the speed of movement of the sputum was observed through a noumenal microscope, thus measuring the MTR. The pH value of the sputum was measured by means of an electronic model HM-SAp pH meter, while the spinnability was measured by a device developed by Nagaoka and Yamanaka (disclosed in Transactions of 2nd Symposium of Cough and sputum, published July 20, 1979). The yield value was measured by Dulfano's double-tube method which is shown in the American Review of Respiratory Diseases, Vol. 104, p88, 1971.
(§2) Effect of sodium salt of N-acetylneuraminic acid on sputum was examined in accordance with the testing method explained in connection with Example 5.

[2] = Rheological properties and pH of purulent sputum after sodium salt treatment (Example 10); design: species or system human; details: 1 mg/ml sputum
Method: as §1, §2

[3] = Acute toxicity test of sodium salt of N-acetylneuraminic acid, mouse (Example 11); design: species or system ICR mice; details: in vivo
Method: (§3) A test was conducted to examine the acute toxicity of sodium salt of N-acetylneuraminic acid, using mice, rats, and guinea pig by means of per as, subcutaneous injection, intravenous injection, intraperitoneal injection, and inhalation.
(§4) 20% (W/V) dissolved in distilled water

[4] = Acute toxicity test of sodium salt of N-acetylneuraminic acid, rat (Example 11); format: in vivo, SD rats; details: in vivo
Method: as §3, §4
(§5) Inhalation was conducted by 1hr exposure to mist.

rat = assay: as above; format: in vivo, SD rats; details: inhalation, 1hr exposure to mist
Method: as §3, §4, §5

[5] = Acute toxicity test of sodium salt of N-acetylneuraminic acid, guinea pig (Example 11); design: species or system Hartley guinea pig; details: in vivo, intravenous injection, 95% 2,355-4,087
Method: as §3
Hartley guinea pig: 6 weeks old
as §4

[6] = ip, intraperitoneal injection, first line (sex not given)
[7] = ip, intraperitoneal injection, second line (sex not given)
[8] = po, per os, first line (sex not given)
[9] = po, per os, second line (sex not given)
[10] = sc, subcutaneous injection, first line (sex not given)
[11] = sc, subcutaneous injection, second line (sex not given)

CC(=O)N[C@H]1[C@H]([C@H](O)[C@H](O)CO)OC(O)(C(=O)O)C[C@@H]1O (stereo partly drawn) [sodium salt of N-acetylneuraminic acid]
activation at 100 µg/mL (palatine mucosa of frog; 5 min, 5 min after applied): 10.7 ± 19.2%
activation at 10 µg/mL (palatine mucosa of frog; 5 min, 5 min after applied): 20.8 ± 25.5%
activation at 1 µg/mL (palatine mucosa of frog; 5 min, 5 min after applied): 16.2 ± 19.5%
activation at 0.1 µg/mL (palatine mucosa of frog; 5 min, 5 min after applied): 2.6 ± 22.2%
activation at 100 µg/mL (palatine mucosa of frog; 10 min, 10 min after applied): 8.5 ± 23.4%
activation at 10 µg/mL (palatine mucosa of frog; 10 min, 10 min after applied): 18 ± 29.7%
activation at 1 µg/mL (palatine mucosa of frog; 10 min, 10 min after applied): 18.9 ± 22.1%
activation at 0.1 µg/mL (palatine mucosa of frog; 10 min, 10 min after applied): 8.5 ± 21.9%
activation at 100 µg/mL (palatine mucosa of frog; 0.25 h, 15 min after applied): 7.4 ± 24.7%
activation at 10 µg/mL (palatine mucosa of frog; 0.25 h, 15 min after applied): 5.7 ± 24.9%
activation at 1 µg/mL (palatine mucosa of frog; 0.25 h, 15 min after applied): 17.7 ± 34%
activation at 0.1 µg/mL (palatine mucosa of frog; 0.25 h, 15 min after applied): 7.1 ± 27.2%
Effect on MTR of frog palatine mucosa (palatine mucosa of frog; Table 6): acceleration of the MTR of the frog palatine mucosa in a certain dependency on the dose
Effect compared with acetylcholine (palatine mucosa of frog; acetylcholine at 10^-4 mg/ml): subtantially equivalent to that of the acetylcholine
Effect on number of rotations (ciliated cell; 10^-3 mg/ml): A significant number of rotations was observed
activation at 100 µg/mL (ciliated cell; 5 min, 5 min after perfusion): 0%
activation at 10 µg/mL (ciliated cell; 5 min, 5 min after perfusion): 1.5 ± 11.6%
activation at 1 µg/mL (ciliated cell; 5 min, 10^-3 mg/ml, 5 min after perfusion): 11.6 ± 29.8%
activation at 0.1 µg/mL (ciliated cell; 5 min, 5 min after perfusion): -3.4 ± 9.7%
activation at 100 µg/mL (ciliated cell; 10 min, 10 min after perfusion): 4.7 ± 6.6%
activation at 10 µg/mL (ciliated cell; 10 min, 10 min after perfusion): 2.1 ± 18.2%
activation at 1 µg/mL (ciliated cell; 10 min, 10^-3 mg/ml, 10 min after perfusion): 20.7 ± 27.5%
activation at 0.1 µg/mL (ciliated cell; 10 min, 10 min after perfusion): 0.6 ± 10.6%
activation at 100 µg/mL (ciliated cell; 0.25 h, 15 min after perfusion): 15.4 ± 9.3%
activation at 10 µg/mL (ciliated cell; 0.25 h, 15 min after perfusion): 3.7 ± 29.3%
activation at 1 µg/mL (ciliated cell; 0.25 h, 10^-3 mg/ml, 15 min after perfusion): 16.2 ± 32.3%
activation at 0.1 µg/mL (ciliated cell; 0.25 h, 15 min after perfusion): -5 ± 8.2%
Change of sputum MTR [1]: significant increase in pH value and MTR
MTR after treatment ([1]; 15 specimens, mean ± S.D., before 9 ± 5, P < 0.01): 12 ± 5 mm/min.
Change of spinnability [2]: generally increased
Change of sputum pH [2]: significant increase in pH value
Change of yield value [2]: a reduction was observed with regard to the yield value
Yield value after treatment ([2]; 15 specimens, mean ± S.D., before 0.8 ± 1.5): 0.3 ± 0.6 mmH2 O
pH after treatment ([2]; 15 specimens, mean ± S.D., before 7.48 ± 0.41, P < 0.001): 7.91 ± 0.43
Spinnability after treatment ([2]; 15 specimens, mean ± S.D., before 13 ± 14): 21 ± 28 mm
LD50 at 336 h [3, 6]: > 5000 mg/kg
LD50 at 336 h [3, 7]: > 5000 mg/kg
LD50 at 336 h ([3]; iv, intravenous injection, first line (sex not given), 95% 5,679-7,084): 6290 mg/kg
LD50 at 336 h ([3]; iv, intravenous injection, second line (sex not given), 95% 7,214-9,073): 7950 mg/kg
LD50 at 336 h [3, 8]: > 5000 mg/kg
LD50 at 336 h [3, 9]: > 5000 mg/kg
LD50 at 336 h [3, 10]: > 5000 mg/kg
LD50 at 336 h [3, 11]: > 5000 mg/kg
LD50 at 336 h [4, 6]: > 5000 mg/kg
LD50 at 336 h [4, 7]: > 5000 mg/kg
LD50 at 336 h ([4]; iv, intravenous injection, first line (sex not given), 95% 2,638-3,342): 2970 mg/kg
LD50 at 336 h ([4]; iv, intravenous injection, second line (sex not given)): > 5000 mg/kg
LD50 at 336 h [4, 8]: > 5000 mg/kg
LD50 at 336 h [4, 9]: > 5000 mg/kg
LD50 at 336 h [4, 10]: > 5000 mg/kg
LD50 at 336 h [4, 11]: > 5000 mg/kg
LD50 (rat; first line (sex not given)): > 4,000 mg/m^3
LD50 (rat; second line (sex not given)): > 4,000 mg/m^3
LD50 at 336 h [5]: 2860 mg/kg
